How the values were obtained:
[1] = target: T1, Transient receptor potential cation channel subfamily V member 1 (Homo sapiens, UniProt Q8NER1); assay: Antagonist activity at human TRPV1 expressed in HEK293 cells assessed as inhibition of […]-induced increase of intracellular calcium level; format: cell-based
[2] = target: T2, Transient receptor potential cation channel subfamily A member 1 (Rattus norvegicus, UniProt Q6RI86); assay: Antagonist activity at rat TRPA1 expressed in HEK293 cells assessed as inhibition of allyl isothiocyanate-induced increase of intracellular calcium level; format: cell-based
[3] = target: T2, Transient receptor potential cation channel subfamily A member 1; assay: Agonist activity at rat TRPA1 expressed in HEK293 cells assessed as induction of intracellular calcium level; format: cell-based
[4] = target: T1, Transient receptor potential cation channel subfamily V member 1; assay: Agonist activity at human TRPV1 expressed in HEK293 cells assessed as induction of intracellular calcium level relative to […]; format: cell-based
[5] = target: Transient receptor potential cation channel subfamily A member 1 (Rattus norvegicus) (UniProt Q6RI86); assay: Agonist activity at rat TRPA1 expressed in HEK293 cells assessed as induction of intracellular calcium level relative to allyl isothiocyanate; format: cell-based
[6] = target: Transient receptor potential cation channel subfamily A member 1 (Homo sapiens, UniProt O75762); assay: Antagonist activity at human TRPA1 expressed in HEK293 cells assessed as inhibition of allyl isothiocyanate-induced increase of intracellular calcium level; format: cell-based
[7] = target: T2, Transient receptor potential cation channel subfamily A member 1; assay: Antagonist activity at rat TRPA1 expressed in HEK293 cells assessed as inhibition of AITC-induced increase of intracellular calcium level; format: cell-based
[8] = target: T2, Transient receptor potential cation channel subfamily A member 1; assay: Agonist activity at rat TRPA1 expressed in HEK293 cells assessed as induction of intracellular calcium level in presence of AITC; format: cell-based
[9] = target: T1, Transient receptor potential cation channel subfamily V member 1; assay: Antagonist activity at human TRPV1 expressed in HEK293 cells; format: cell-based
[10] = target: T1, Transient receptor potential cation channel subfamily V member 1; assay: Antagonist activity at TRPV1 (unknown origin) in DRG neurons
[11] = target: T1, Transient receptor potential cation channel subfamily V member 1; assay: Antagonist activity at human TRPV1 expressed in HEK293 cells assessed as inhibition of capsaicin-induced increase of intracellular calcium level; format: cell-based

T2 sequence (Q6RI86 whole entry): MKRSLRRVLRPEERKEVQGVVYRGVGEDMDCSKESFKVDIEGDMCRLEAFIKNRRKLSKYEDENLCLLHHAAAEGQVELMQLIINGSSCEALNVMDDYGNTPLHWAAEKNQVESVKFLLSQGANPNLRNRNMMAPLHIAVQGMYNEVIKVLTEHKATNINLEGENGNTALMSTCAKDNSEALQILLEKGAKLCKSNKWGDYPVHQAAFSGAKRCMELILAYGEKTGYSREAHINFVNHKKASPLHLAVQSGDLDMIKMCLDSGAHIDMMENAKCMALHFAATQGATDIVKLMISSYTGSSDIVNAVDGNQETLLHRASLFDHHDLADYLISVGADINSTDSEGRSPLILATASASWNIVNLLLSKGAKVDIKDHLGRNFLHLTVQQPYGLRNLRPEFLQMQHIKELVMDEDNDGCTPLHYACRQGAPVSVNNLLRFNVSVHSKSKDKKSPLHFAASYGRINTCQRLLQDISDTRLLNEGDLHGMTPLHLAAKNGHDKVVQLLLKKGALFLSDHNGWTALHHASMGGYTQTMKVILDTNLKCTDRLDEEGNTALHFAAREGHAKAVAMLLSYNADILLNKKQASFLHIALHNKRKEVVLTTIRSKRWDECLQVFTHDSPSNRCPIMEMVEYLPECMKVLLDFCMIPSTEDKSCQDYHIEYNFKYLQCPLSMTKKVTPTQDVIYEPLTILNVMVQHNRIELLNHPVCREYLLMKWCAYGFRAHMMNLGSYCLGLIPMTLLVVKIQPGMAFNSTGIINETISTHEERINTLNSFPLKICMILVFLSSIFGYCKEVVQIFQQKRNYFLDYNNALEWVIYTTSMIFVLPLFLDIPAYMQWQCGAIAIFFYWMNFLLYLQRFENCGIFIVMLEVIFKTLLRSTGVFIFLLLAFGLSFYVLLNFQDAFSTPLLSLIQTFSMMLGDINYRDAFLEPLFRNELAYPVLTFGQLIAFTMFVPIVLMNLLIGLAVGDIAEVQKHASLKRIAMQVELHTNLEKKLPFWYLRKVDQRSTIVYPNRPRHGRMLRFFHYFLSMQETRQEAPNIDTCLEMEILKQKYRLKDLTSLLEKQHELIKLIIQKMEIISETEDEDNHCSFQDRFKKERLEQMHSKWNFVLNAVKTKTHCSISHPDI
Chain of Transient receptor potential cation channel subfamily A member 1 (Rattus norvegicus) (Q6RI86 whole entry): as above
T1 sequence (Q8NER1 whole entry): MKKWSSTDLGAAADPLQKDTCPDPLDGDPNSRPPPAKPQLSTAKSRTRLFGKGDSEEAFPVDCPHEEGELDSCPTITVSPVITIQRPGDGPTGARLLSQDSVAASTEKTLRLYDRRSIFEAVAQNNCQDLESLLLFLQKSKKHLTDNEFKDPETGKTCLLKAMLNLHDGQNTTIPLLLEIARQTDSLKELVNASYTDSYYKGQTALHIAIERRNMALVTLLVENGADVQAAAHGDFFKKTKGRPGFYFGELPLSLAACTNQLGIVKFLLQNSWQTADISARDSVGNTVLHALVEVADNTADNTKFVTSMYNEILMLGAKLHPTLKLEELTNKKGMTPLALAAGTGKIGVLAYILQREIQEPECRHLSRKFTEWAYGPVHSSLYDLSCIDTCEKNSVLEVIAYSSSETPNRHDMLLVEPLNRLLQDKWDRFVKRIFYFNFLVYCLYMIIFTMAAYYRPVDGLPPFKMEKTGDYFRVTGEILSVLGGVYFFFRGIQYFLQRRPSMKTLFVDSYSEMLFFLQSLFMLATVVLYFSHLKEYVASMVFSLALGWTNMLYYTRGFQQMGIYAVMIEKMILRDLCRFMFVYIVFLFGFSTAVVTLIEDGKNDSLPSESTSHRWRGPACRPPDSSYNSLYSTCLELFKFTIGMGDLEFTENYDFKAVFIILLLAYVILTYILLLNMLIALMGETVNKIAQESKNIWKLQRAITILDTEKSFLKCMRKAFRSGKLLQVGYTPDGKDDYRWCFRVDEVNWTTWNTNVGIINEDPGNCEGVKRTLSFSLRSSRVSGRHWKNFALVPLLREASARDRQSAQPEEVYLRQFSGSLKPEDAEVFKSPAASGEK
Chain of Transient receptor potential cation channel subfamily A member 1 (Homo sapiens, UniProt O75762) (O75762 whole entry): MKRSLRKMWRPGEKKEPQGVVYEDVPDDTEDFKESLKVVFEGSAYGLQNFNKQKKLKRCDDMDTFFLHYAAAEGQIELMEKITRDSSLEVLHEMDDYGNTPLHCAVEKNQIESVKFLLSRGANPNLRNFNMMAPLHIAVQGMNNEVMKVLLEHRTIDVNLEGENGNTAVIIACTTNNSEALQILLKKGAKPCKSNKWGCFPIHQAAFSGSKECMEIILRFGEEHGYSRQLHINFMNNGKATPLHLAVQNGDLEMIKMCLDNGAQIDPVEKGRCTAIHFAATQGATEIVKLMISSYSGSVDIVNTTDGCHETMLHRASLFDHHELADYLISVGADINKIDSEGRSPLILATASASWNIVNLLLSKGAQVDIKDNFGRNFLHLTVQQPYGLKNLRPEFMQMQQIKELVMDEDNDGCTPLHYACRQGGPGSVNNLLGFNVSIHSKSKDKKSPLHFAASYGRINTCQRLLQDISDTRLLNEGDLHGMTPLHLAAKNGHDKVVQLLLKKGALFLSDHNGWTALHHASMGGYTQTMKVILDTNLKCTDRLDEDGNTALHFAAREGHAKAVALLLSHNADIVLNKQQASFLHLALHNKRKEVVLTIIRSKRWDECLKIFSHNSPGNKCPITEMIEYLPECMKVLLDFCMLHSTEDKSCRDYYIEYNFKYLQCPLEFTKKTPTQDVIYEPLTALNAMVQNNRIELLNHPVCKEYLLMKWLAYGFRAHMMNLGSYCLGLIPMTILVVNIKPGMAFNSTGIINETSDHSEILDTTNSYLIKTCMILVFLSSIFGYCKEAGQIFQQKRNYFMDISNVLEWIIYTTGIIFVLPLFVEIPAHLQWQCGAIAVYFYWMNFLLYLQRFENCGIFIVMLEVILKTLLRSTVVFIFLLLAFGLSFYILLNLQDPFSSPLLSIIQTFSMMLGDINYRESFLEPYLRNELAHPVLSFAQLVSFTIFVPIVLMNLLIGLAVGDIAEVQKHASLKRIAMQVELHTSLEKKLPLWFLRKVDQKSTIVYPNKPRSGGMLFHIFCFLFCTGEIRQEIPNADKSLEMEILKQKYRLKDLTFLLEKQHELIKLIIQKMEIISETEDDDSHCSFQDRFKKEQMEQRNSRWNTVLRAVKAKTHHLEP

| Compound | IC50 [1] | IC50 [2] | EC50 [3] | Efficacy [4] | Efficacy [5] | IC50 [6] | IC50 [7] | IC50 [8] | IC50 [9] | IC50 [10] | IC50 [11] |
| --- | --- | --- | --- | --- | --- | --- | --- | --- | --- | --- | --- |
| COc1ccc(/C=C/c2cccc(OC)c2)cc1 | > 10 µM | 2.9 µM | 1.5 µM | < 10% | 75% |  |  |  |  |  |  |
| COc1ccc(/C=C/c2ccccc2)cc1 | > 10 µM | 17.8 µM | 2.4 µM | < 10% | 49% | 12.1 µM |  |  |  |  |  |
| CC(=O)Oc1ccc(/C=C/c2cc(OC(C)=O)cc(OC(C)=O)c2)cc1 [TRIACETYLRESVERATROL] | > 10 µM | 11.8 µM | 7.5 µM | < 10% | 127% |  |  |  |  |  |  |
| Oc1ccccc1/C=C/c1ccccc1 | > 10 µM | 2.2 µM | 0.58 µM | < 10% | 88.4% |  |  |  |  |  |  |
| Oc1ccc(/C=C/c2cc(O)cc(O)c2)cc1 [RESVERATROL] |  | 19.9 µM |  |  | < 10% |  | 0.75 µM | 2.74 µM |  |  |  |
| COc1cccc(/C=C/c2ccc(O)cc2)c1 [(E)-5-METHOXY-4'-STILBENOL] | > 10 µM | 10.1 µM | 6.6 µM | < 10% | 41.8% |  |  |  |  |  |  |
| Oc1cc(O)cc(/C=C/c2ccccc2)c1 [PINOSYLVIN] | > 10 µM | 12.1 µM |  | < 10% | < 10% |  |  |  |  |  |  |
| Oc1ccc(/C=C/c2ccccc2)cc1 [(E)-4-STYRYLPHENOL] | > 10 µM | 5.5 µM | 8.4 µM | < 10% | 61.9% |  |  |  |  |  |  |
| COc1ccc(/C=C/c2ccc(OC)cc2)cc1 | > 10 µM | 10.6 µM | 4.2 µM | < 10% | 86.7% |  |  |  |  |  |  |
| COc1ccccc1/C=C/c1ccccc1 | > 10 µM | 1.7 µM | 0.88 µM | < 10% | 83.4% |  |  |  |  |  |  |
| COc1cccc(/C=C/c2ccccc2)c1 | > 10 µM | 2.3 µM | 1.7 µM | < 10% | 101% |  |  |  |  |  |  |
| Oc1cccc(/C=C/c2ccccc2)c1 [(E)-3-STILBENOL] | > 10 µM | 3.4 µM | 1.8 µM | < 10% | 77.4% |  |  |  |  |  |  |
| Oc1ccc(/C=C/c2ccc(O)cc2)cc1 [TRANS-4,4'-DIHYDROXYSTILBENE] | > 10 µM | 25.2 µM | 11 µM | < 10% | 40% |  |  |  |  |  |  |
| CC(=O)Oc1ccccc1/C=C/c1ccccc1 | > 10 µM | 8.6 µM | 7.2 µM | < 10% | 135% |  |  |  |  |  |  |
| COc1ccc(/C=C/c2cc(OC)cc(OC)c2)cc1 [TRISMETHOXYRESVERATROL] | > 10 µM | 3 µM | 1.7 µM | < 10% | 72.5% |  |  |  |  |  |  |
| COc1cc(/C=C/c2ccccc2)cc(OC)c1 [3,5-O-DIMETHYLPINOSYLVIN] | > 10 µM | 3.4 µM | 1.7 µM | < 10% | 84.1% |  |  |  |  |  |  |
| COc1cc(/C=C/c2ccc(O)cc2)cc(OC)c1 [PTEROSTILBENE] | > 10 µM | 7.5 µM | 3.6 µM | < 10% | 71.1% |  |  |  |  |  |  |
| COc1ccc(/C=C/c2ccc(O)cc2)cc1 | > 10 µM | 10 µM | 10.1 µM | < 10% | 72.1% |  |  |  |  |  |  |
| Oc1ccc(/C=C/c2cccc(O)c2)cc1 [(E)-3,4'-STILBENDIOL] | > 10 µM | 16.5 µM | 13.5 µM | < 10% | 73.4% |  |  |  |  |  |  |
| COc1cc(O)cc(/C=C/c2ccccc2)c1 [PINOSYLVIN METHYL ETHER] | > 10 µM | 6.9 µM | 3.5 µM | < 10% | 71.4% |  |  |  | 15 µM | 30 µM | 23.7 µM |
| CC(=O)Oc1ccc(/C=C/c2ccccc2)cc1 | > 10 µM | 29.4 µM | 16.3 µM | < 10% | 89.7% |  |  |  |  |  |  |

— ChEMBL document CHEMBL3751759, “TRPA1 channels as targets for resveratrol and related stilbenoids” (Bioorg Med Chem Lett, 2016)
